The text below walks through data of US20240390432A1, “ENGINEERED VECTORS AND ORGANISMS CONTAINING THE SAME FOR ISOFLAVONE CONVERSION IN THE GUT” (Board of Regents, The University of Texas System, priority 2021, published 2024).

A short description of series [1]: Serum Equol levels of mice given soy hydrogel and probiotic via drinking water. It counts as in vivo. To be noted: mouse, oral, positive control: Equol supplemented directly in hydrogel, no Nissle strains. On the procedure: Serum Equol levels of the mice were measured after 1 week of consumption of a low or high soy content supplement (1× or 8× soy loaded hydrogel). […] Two sets of negative controls were provided as reference. […] In addition, a positive control group consumed Equol that was supplement directly in the hydrogel to reveal, as expected, a very high elevation in serum Equol concentration reaching almost 5 μM without the addition of the engineered Nissle P1 and Nissle P2 strains.

The target of another series is ERbeta (Homo sapiens, UniProt Q92731). As to conditions: unlike products activating ERalpha, androgen, glucocorticoid, progesterone, mineralocorticoid receptors; cited from earlier work.
Sequence of ERbeta (Q92731 whole entry, species assumed): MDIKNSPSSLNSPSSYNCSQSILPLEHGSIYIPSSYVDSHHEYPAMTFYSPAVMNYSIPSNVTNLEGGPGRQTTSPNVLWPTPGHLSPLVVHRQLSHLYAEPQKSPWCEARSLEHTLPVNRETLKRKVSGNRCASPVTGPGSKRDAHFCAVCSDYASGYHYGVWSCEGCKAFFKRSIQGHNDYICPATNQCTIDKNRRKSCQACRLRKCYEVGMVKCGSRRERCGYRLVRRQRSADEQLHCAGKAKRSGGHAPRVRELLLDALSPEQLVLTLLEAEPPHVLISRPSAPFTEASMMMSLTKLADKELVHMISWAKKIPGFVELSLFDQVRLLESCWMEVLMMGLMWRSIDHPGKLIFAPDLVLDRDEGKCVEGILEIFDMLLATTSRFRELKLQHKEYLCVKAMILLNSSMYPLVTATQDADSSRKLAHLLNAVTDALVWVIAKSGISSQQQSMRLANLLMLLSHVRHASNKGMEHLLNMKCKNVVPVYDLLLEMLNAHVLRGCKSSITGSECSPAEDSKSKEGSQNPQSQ
The conditions of series [2]: Equol-producing postmenopausal women, purified supplement; cited from earlier work.

The structures appear in SMILES notation.

Turning to `Oc1ccc([C@H]2COc3cc(O)ccc3C2)cc1` [Equol], in series [1], the concentration at 1 week is roughly 5 µM. Moreover, the receptor selectivity result on ERbeta is reported as “selective agonist for ERbeta”.
Consider `O=c1c(-c2ccc(O)cc2)coc2cc(O)ccc12` [Daidzein], for which the “effect on serum LDL-C and C-reactive protein” value in series [2] is “not seen”.
